Results: patent US8853412B2, “Pyrrolidinone derivatives as GPR119 modulators for the treatment of diabetes, obesity, dyslipidemia and related disorders” (Sanofi, priority 2012, dated 2014)
pEC50: −log10 of the molar value.

Molecular target: T1, human GPR119 (Homo sapiens, UniProt Q8TDV5)
T1 construct: expressed in transfected cells; host or cells: HEK-293 cell line stably expressing recombinant GPR119
T1 sequence (Q8TDV5 1-335): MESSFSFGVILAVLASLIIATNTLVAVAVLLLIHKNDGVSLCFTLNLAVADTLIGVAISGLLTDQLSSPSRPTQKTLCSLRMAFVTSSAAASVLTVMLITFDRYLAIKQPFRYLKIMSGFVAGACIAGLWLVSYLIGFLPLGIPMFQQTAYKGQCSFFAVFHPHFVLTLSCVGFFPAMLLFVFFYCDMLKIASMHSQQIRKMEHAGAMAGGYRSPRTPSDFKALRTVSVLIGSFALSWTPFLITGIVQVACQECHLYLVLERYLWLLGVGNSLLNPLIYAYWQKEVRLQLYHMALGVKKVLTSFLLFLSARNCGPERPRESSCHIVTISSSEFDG
Assay: Functional cellular assay measuring GPR119-mediated cAMP release (HTRF), HEK-293 cells stably expressing recombinant GPR119
Type: cell-based
Conditions: cell line expressing human GPR119; cAMP response, 30 minutes at room temperature
Method: Functional Cellular Assays Measuring GPR119-Mediated cAMP Release.
Compounds of the invention, which are agonists of GPR119, were characterized by functional assays measuring the cAMP response of HEK-293 cell lines stably expressing recombinant GPR119 from man, mouse or rat, or by using a hamster cell line HIT-T15 expressing GPR119 endogenously. The cAMP content was determined using a kit based on homogenous time-resolved fluorescence (HTRF) from Cisbio Corp. (cat. no. 62AM4PEC). For preparation, cells were split into T175 culture flasks and grown to near confluency in medium (DMEM/10% FCS for HEK-293 cells, and F-12K medium/10% horse serum/2.5% FCS for HIT-T15 cells, respectively). Medium was then removed and cells washed with PBS lacking calcium and magnesium ions, followed by proteinase treatment with accutase (Sigma-Aldrich, cat. no. A6964). Detached cells were washed and resuspended in assay buffer (1×HBSS; 20 mM HEPES, 0.1% BSA, 2 mM IBMX) and cellular density determined. They were then diluted to 400000 cells/mL and 25 μL-aliquots dispensed to the wells of 96-well plates. For measurement, 25 μL of test compound in assay buffer was added and incubated for 30 minutes at room temperature. After addition of HTRF reagents diluted in lysis buffer, the plates were incubated for 1 hour, followed by measuring the fluorescence ratio at 665 vs. 620 nm. Potency of the agonists was quantified by determining the concentrations that caused 50% of the maximal response/activation (EC50). See Table 10 for exemplary data obtained using the cell line expressing human GPR119.

pEC50 | SMILES
5.52 | CC(=O)N1CCCC(Oc2ccc(O[C@@H]3CCN(c4cc(F)c5c(c4)C(=O)CC5)C3=O)cn2)C1 (stereo partly drawn) [Example 2-70]
7.19 | CCCOc1cc(O[C@@H]2CCN(c3cc(F)c4c(c3)C(=O)CC4)C2=O)ccn1 [Example 5-05]
4.94 | O=C1CC[C@H](COc2ccc(O[C@@H]3CCN(c4cc(F)c5c(c4)C(=O)CC5)C3=O)cn2)N1 [Example 2-29]
6.55 | Cc1cc(N2CC[C@@H](Oc3ccc(OCC4CC4)nc3)C2=O)cc2c1CCC2=O [Example 4-02]
7.74 | Cc1cc(O[C@@H]2CCN(c3cc(F)c4c(c3)C(=O)CC4)C2=O)cnc1OCC1CC1 [Example 3-10]
5.42 | O=C1CCc2c(F)cc(N3CC[C@@H](Oc4ccc(-c5ncc(CO)s5)nc4)C3=O)cc21 [Example 1-16]
7.08 | O=C1CCc2c(F)cc(N3CC[C@@H](Oc4ccc(OC[C@H]5CCCO5)nc4)C3=O)cc21 [Example 2-74]
7.02 | O=C1CCc2c(F)cc(N3CC[C@@H](Oc4ccc(OCC5CCOC5)nc4)C3=O)cc21 (stereo partly drawn) [Example 2-75]
7.48 | O=C1CCc2c(F)cc(N3CC[C@@H](Oc4ccc(OC5CCCOC5)nc4)C3=O)cc21 (stereo partly drawn) [Example 2-78]
4.79 | O=C1CC[C@@H](COc2ccc(O[C@@H]3CCN(c4cc(F)c5c(c4)C(=O)CC5)C3=O)cn2)N1 [Example 2-30]
6.54 | O=C1CCc2c(F)cc(N3CC[C@@H](Oc4ccc(OCCOCCO)nc4)C3=O)cc21 [Example 2-15]
6.80 | O=C1CCc2c(F)cc(N3CC[C@@H](Oc4ccc(OCC5CCCOC5)nc4)C3=O)cc21 (stereo partly drawn) [Example 2-73]
6.59 | O=C1CCc2c(F)cc(N3CC[C@H](Oc4ccc(OCCC5CC5)nc4)C3=O)cc21 [Example 3-11]
4.54 | CC(=O)c1ccc(O[C@@H]2CCN(c3cc(F)c4c(c3)C(=O)CC4)C2=O)cn1 [Example 3-15]
7.92 | CCC(C)Oc1ccc(O[C@@H]2CCN(c3cc(F)c4c(c3)C(=O)CC4)C2=O)cn1 (stereo partly drawn) [Example 2-14]
6.16 | O=C1CCCc2ccc(N3CC[C@@H](Oc4ccc(OCCC5CC5)nc4)C3=O)cc21 [Example 1-10]
7.05 | O=C1CCc2c(F)cc(N3CC[C@@H](Oc4ccc(O[C@H]5CCOC5)nc4)C3=O)cc21 [Example 2-68]
6.86 | O=C(OCC1CC1)c1ccc(O[C@@H]2CCN(c3cc(F)c4c(c3)C(=O)CC4)C2=O)cn1 [Example 3-04]
7.19 | O=C1CCc2ccc(N3CC[C@@H](Oc4ccc(OCCC5CC5)nc4)C3=O)cc21 [Example 1-09]
6.85 | CC(C)c1noc(-c2ccc(O[C@@H]3CCN(c4cc(F)c5c(c4)C(=O)CC5)C3=O)cn2)n1 [Example 3-02]

pEC50 | SMILES
5.70 | CCOc1ccc(O[C@H]2CCN(c3cc(F)c4c(c3)C(=O)CC4)C2=O)cn1 [Example 3-21]
4.35 | O=C1CCc2c(F)cc(N3CC[C@@H](Oc4ccc(OCCn5ccnc5)nc4)C3=O)cc21 [Example 2-36]
8.05 | CC(C)CCOc1ccc(O[C@@H]2CCN(c3cc(F)c4c(c3)C(=O)CC4)C2=O)cn1 [Example 2-22]
5.85 | O=C1CCc2c(F)cc(N3CC[C@@H](Oc4ccc(OCc5ccncc5)nc4)C3=O)cc21 [Example 2-28]
7.55 | O=C1CCc2c(F)cc(N3CC[C@@H](Oc4ccnc(OC5CCC5)c4)C3=O)cc21 [Example 5-10]
7.34 | O=C1CCc2ccc(N3CC[C@@H](Oc4ccc(OCC5CC5)nc4)C3=O)c(F)c21 [Example 9-03]
7.82 | O=C1CCc2c(F)cc(N3CC[C@@H](Oc4ccc(OCCCF)nc4)C3=O)cc21 [Example 2-61]
7.89 | CC(C)Oc1ccc(O[C@@H]2CCN(c3cc(F)c4c(c3)C(=O)CC4)C2=O)cn1 [Example 2-24, (R)-1-(7-Fluoro-3-oxo-indan-5-yl)-3-(6-isopropoxy-pyridin-3-yloxy)-pyrrolidin-2-one]
7.72 | O=C1CCc2c(F)cc(N3CC[C@@H](Oc4ccc(OC5CC5)nc4)C3=O)cc21 [Example 3-13, (R)-3-(6-Cyclopropoxy-pyridin-3-yloxy)-1-(7-fluoro-3-oxo-indan-5-yl)-pyrrolidin-2-one]
7.80 | CCCCCOc1ccc(O[C@@H]2CCN(c3cc(F)c4c(c3)C(=O)CC4)C2=O)cn1 [Example 2-17]
5.50 | O=C1CCc2c(F)cc(N3CC[C@@H](Oc4ccc(C(=O)N5CCCC5)nc4)C3=O)cc21 [Example 3-05]
6.77 | CCOc1cc(O[C@@H]2CCN(c3cc(F)c4c(c3)C(=O)CC4)C2=O)ccn1 [Example 5-04]
7.20 | O=C1CCc2c(F)cc(N3CC[C@@H](Oc4ccc(OC5CCOC5)nc4)C3=O)cc21 (stereo partly drawn) [Example 2-03]
6.84 | O=C1CCc2ccc(N3CC[C@@H](Oc4ccc(Oc5ccccc5)cc4)C3=O)cc21 [Example 1-04]
7.21 | CCOC(=O)COc1ccc(O[C@@H]2CCN(c3cc(F)c4c(c3)C(=O)CC4)C2=O)cn1 [Example 2-43]
7.41 | O=C1CCc2c(F)cc(N3CC[C@@H](Oc4ccc(OCc5ccccc5)nc4)C3=O)cc21 [Example 1-17]
5.25 | O=C1CCc2c(F)cc(N3CC[C@@H](Oc4ccc(OCC5CC5)[n+]([O-])c4)C3=O)cc21 [Example 7-01]
5.12 | CC(C)N(CCOc1ccc(O[C@@H]2CCN(c3cc(F)c4c(c3)C(=O)CC4)C2=O)cn1)C(C)C [Example 2-58]
7.54 | CO[C@@H](C)COc1ccc(O[C@@H]2CCN(c3cc(F)c4c(c3)C(=O)CC4)C2=O)cn1 [Example 2-69]
5.83 | O=C1CCc2c(F)cc(N3CC[C@@H](Oc4ccc(OCc5cccnc5)nc4)C3=O)cc21 [Example 2-31]

pEC50 | SMILES
5.03 | O=C1CCc2c(F)cc(N3CC[C@@H](Oc4ccc(OCCN5CCCC5=O)nc4)C3=O)cc21 [Example 2-56]
6.99 | O=C1CCc2c(F)cc(N3CC[C@@H](Oc4ccc(OCC5COCO5)nc4)C3=O)cc21 (stereo partly drawn) [Example 2-32]
7.35 | O=C1CCc2c(F)cc(N3CC[C@@H](Oc4ccc(OC5CCOCC5)nc4)C3=O)cc21 [Example 2-07, (R)-1-(7-Fluoro-3-oxo-indan-5-yl)-3-[6-(tetrahydro-pyran-4-yloxy)-pyridin-3-yloxy]-pyrrolidin-2-one]
6.67 | O=C1CCc2c(F)cc(N3CC[C@@H](Oc4ccc(Oc5ccc(F)cn5)nc4)C3=O)cc21 [Example 6-01]
6.34 | O=C1CCc2c(F)cc(N3CC[C@@H](Oc4ccc(OCCn5cccn5)nc4)C3=O)cc21 [Example 2-21]
8.30 | CCCOc1ccc(O[C@@H]2CCN(c3cc(F)c4c(c3)C(=O)CC4)C2=O)cn1 [Example 2-18]
5.88 | O=C1CCc2c(F)cc(N3CC[C@@H](Oc4ccc(OCCCO)nc4)C3=O)cc21 [Example 2-42]
7.52 | O=C1CCc2c(F)cc(N3CC[C@@H](Oc4ccnc(OCC(F)(F)F)c4)C3=O)cc21 [Example 5-07]
6.72 | CCCCOc1cc(O[C@@H]2CCN(c3cc(F)c4c(c3)C(=O)CC4)C2=O)ccn1 [Example 5-02]
7.96 | O=C1CCc2c(F)cc(N3CC[C@@H](Oc4ccc(SCC5CC5)nc4)C3=O)cc21 [Example 3-17]
8.10 | O=C1CCc2c(F)cc(N3CC[C@@H](Oc4ccc(OCC5CC5)nc4)C3=O)cc21 [Example 1-11, (R)-3-(6-Cyclopropylmethoxy-pyridin-3-yloxy)-1-(7-fluoro-3-oxo-indan-5-yl)-pyrrolidin-2-one]
7.80 | O=C1CCc2c(F)cc(N3CC[C@@H](Oc4ccc(OC5CCC5)nc4)C3=O)cc21 [Example 2-72]
7.27 | CCC(CC)Oc1ccc(O[C@@H]2CCN(c3cc(F)c4c(c3)C(=O)CC4)C2=O)cn1 [Example 2-64]
7.80 | O=C1CCc2c(F)cc(N3CC[C@@H](Oc4ccc(OC5CCCCC5)nc4)C3=O)cc21 [Example 2-66]
5.60 | Cn1cc(COc2ccc(O[C@@H]3CCN(c4cc(F)c5c(c4)C(=O)CC5)C3=O)cn2)cn1 [Example 2-71]
7.35 | CCOc1ncc(O[C@@H]2CCN(c3cc(F)c4c(c3)C(=O)CC4)C2=O)cc1F [Example 3-18]
6.44 | Cc1cc(COc2ccc(O[C@@H]3CCN(c4cc(F)c5c(c4)C(=O)CC5)C3=O)cn2)no1 [Example 2-41]
7.72 | O=C1CCc2c(F)cc(N3CC[C@@H](Oc4ccc(OCC5CC5)nc4)C3=O)c(F)c21 [Example 9-01]
7.01 | N#Cc1cc(N2CC[C@@H](Oc3ccc(OCC4CC4)nc3)C2=O)cc2c1CCC2=O [Example 4-03]
6.85 | COCCOc1ccc(O[C@@H]2CCN(c3cc(F)c4c(c3)C(=O)CC4)C2=O)cn1 [Example 2-13]
